Holding throughout (experiment): DTP human tumour cell line panel, 48 h
Assay [1] concerns SK-MEL-2 melanoma.
In assay [2] the test system is SK-OV-3 ovarian.
Assay [3] deals with UACC-62 melanoma.
Assay [4] relates to OVCAR-3 ovarian.
Assay [5] has as its system SK-MEL-28 melanoma.
Assay [6] concerns DLD-1 colon.
For assay [7], the system named is SR leukemia.
Assay [8] concerns HCC-2998 colon.
Assay [9] deals with M19-MEL melanoma.
The test system of assay [10] is T-47D breast.

Values joined by “and” are separate entries in the source; they are usually repeats but may differ in a detail not shown here. Equal entries are not always repeated.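 Cells were grown in 96-well plates and exposed to each compound for 48 hours at five concentrations; endpoints were interpolated linearly between bracketing concentrations, or set to the highest concentration if not reached. GI50 = concentration required for 50% inhibition of growth. TGI: total growth inhibition.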 Some results are limits rather than exact numbers.

In PubChem BioAssay (NCI) one finds TGI and GI50 data, which are given here for 25 compounds.

For orientation: TGI means the concentration giving total growth inhibition. The low end stands for more potent growth arrest, the high end for less potent growth arrest. `CCC(=O)CC(=O)CCC(=O)Nc1cc(C)ccc1C`: the TGI in [1], in [2], in [3], in assay [4], in [5] and in assay [6] was over 100 µM throughout. This compound gave a TGI in assay [7] of over 100 µM.
For orientation: GI50 means the concentration giving 50% growth inhibition. Consider `N.N.N.N.O=C([O-])CCl.O=C([O-])CCl.[Co+3].[O-][Cl+3]([O-])([O-])[O-]`, for which the GI50 in assay [8], in assay [1], in [2], in assay [3], in assay [4] and in [5] was over 100 µM throughout. Moreover, in assay [6], the GI50 was over 100 µM. The TGI in assay [8], in assay [1], in [2], in [3], in assay [4] and in [5] was over 100 µM throughout. Besides, the TGI in [6] is over 100 µM.
With `[N-]=[N+]=NC1(Cc2ccccc2)C(=O)c2cccc3c2N(CCC3)C1=O` (stereo unspecified), the TGI in [1], in [2], in [3], in assay [9], in assay [5] and in [6] was over 100 µM throughout. Also, the TGI in assay [7] was over 100 µM.
On to `O=C(Nc1ccn(CCO)c(=O)n1)c1ccccc1`, for which the TGI in [1], in assay [2], in assay [3], in assay [9], in [4] and in [5] was over 100 µM throughout. Besides, the TGI in [6] and in assay [7] was over 100 µM each time.
As to `O=C1c2ccccc2C(=O)N1CCn1ccc(NC(c2ccccc2)(c2ccccc2)c2ccccc2)nc1=O`, the TGI is 37.7 µM in [8]; 43.2 µM in assay [1]; over 100 µM in assay [2]; 26 µM in assay [3]; 32.6 µM in assay [9]; 65.8 µM in assay [4]. Further, the TGI in assay [5] was 32.1 µM; in assay [6], 38.9 µM.
With `COc1ccc2occ(CCC(=O)O)c2c1`, the TGI in [8], in assay [2], in [3], in assay [9], in assay [4] and in assay [5] was over 100 µM in each case. The compound further displayed a TGI in [6] of over 100 µM.
On to `CC1(C)N=C(N)N=C(N)N1c1ccc(CCCCc2ccc(Cl)cc2S(=O)(=O)F)c(Cl)c1`, for which the GI50 in assay [8] was 1.15 µM; in assay [1] it was 3.07 µM; in assay [10], 1.87 µM; in [2] it was 4.3 µM; in assay [3], 0.344 µM; in [4] it was 0.762 µM. For the same compound, the figures for the GI50 in assay [5] and in assay [7] were 0.965 µM and 0.271 µM, respectively. The TGI in [8] was found to be 21.2 µM; in assay [1], 25.1 µM; in [10] it was 7.56 µM; in assay [2] it was 18.9 µM; in assay [3], 14.3 µM; in assay [4] it was 12.2 µM. Moreover, the figures for the TGI in [5] and in [7] were 8.46 µM and 26.2 µM, respectively.
Take `S=C(Nc1ccc(Cl)cc1)Nc1ccc(-c2nc3ccccc3s2)cc1`: the GI50 in assay [8] was 14.7 µM; in [1], 21 µM; in [10] it was 5.19 µM; in assay [2] it was 24.9 µM; in [3], 10.4 µM; in [4], 9.93 µM. Besides, the figures for the GI50 in assay [5] and in assay [7] were 19.1 µM and 4.47 µM, respectively. Further, the TGI in assay [8] was 27.8 µM; in assay [1], 40.2 µM; in assay [10], 38.9 µM; in assay [2], 63.1 µM; in assay [3] it was 24.8 µM; in assay [4], 34.1 µM. For the same compound, the values for the TGI in assay [5] and in assay [7] were 44.2 µM and 27.4 µM, respectively.
For the compound `O=C1CCC(Cl)=CC2CCCN12` (stereo unspecified), the TGI in assay [8], in assay [1], in [2], in assay [3], in [9] and in assay [5] was over 100 µM each time. In assay [6], this compound came in with a TGI of over 100 µM.
Regarding `CC(=O)N=C1N(/C=C2\C(=O)Oc3ccccc3C2=O)C(=O)/C(=C/c2cccc(Cl)c2Cl)N1C`, the TGI in assay [8] was 31.4 µM; in assay [1], 60.4 µM; in assay [10] it was over 100 µM; in assay [2] it was 39.4 µM; in assay [3] it was over 100 µM; in assay [4] it was 20 µM. In addition, the results for the TGI in assay [5] and in assay [7] were over 100 µM and 54.6 µM, respectively.
As to `O=C(Nc1ccc2ncccc2c1)Nc1ccc2ncccc2c1`, the TGI in assay [8], in assay [1], in [10], in assay [2], in [3] and in [4] was over 100 µM each time. In addition, the TGI in assay [5] and in assay [7] was over 100 µM in each case.
`CC(C)(C)NNC(=O)CCn1[nH]c(=O)c(Cl)c(Cl)c1=O`: the TGI in assay [8], in assay [1], in assay [2], in assay [3], in [9] and in assay [4] was over 100 µM in each case. The TGI in assay [5] and in [6] was over 100 µM in each case.
For `O=[N+]([O-])c1ccc2[nH]c(=S)[nH]c(=S)c2c1`, the TGI in assay [8], in assay [1], in [10], in [2], in assay [3] and in assay [4] was over 100 µM in each case. Besides, the TGI in assay [5] and in assay [7] was over 100 µM throughout.
Consider `OC(CC1SCCCS1)c1ccccc1` (stereo unspecified), for which the TGI in assay [8], in assay [1], in assay [2], in assay [3], in [9] and in [4] was over 100 µM each time. Besides, the TGI in assay [6] was over 100 µM.
Regarding `CN1CCN(C2CCN(C(=O)Nc3cc(Oc4ccc(NC(=O)C5(C(=O)Nc6ccc(F)cc6)CC5)c(F)c4)ccn3)CC2)CC1`, the GI50 is over 2.04 µM in [8]; 0.744 µM in [1]; 5.56 µM in [10]; 1.3 µM in assay [2]; 0.771 µM in [3]; 0.771 µM in assay [5]. The GI50 in assay [7] was 0.53 µM. The total growth inhibition concentration (TGI) in assay [8] is over 10 µM; in [1] it was 2.18 µM; in assay [10] it was over 10 µM; in assay [2] it was over 10 µM; in assay [3], over 2.02 µM; in assay [4], over 3.02 µM. Further, the TGI is 2.28 µM in [5] and 1.77 µM in assay [7].
Take `CCN1CCN(C(=O)[C@@]2(C)CC[C@]3(C)CC[C@]4(C)C(=CC(=O)[C@@H]5[C@@]6(C)CC[C@H](OC7C[C@@H](O)[C@@H](O)C(C)O7)C(C)(C)[C@@H]6CC[C@]54C)[C@@H]3C2)CC1` (stereo partly specified): the GI50 is 2.26 µM in [8]; 8.95 µM in assay [1]; 9.57 µM in assay [10]; 9.96 µM in assay [2]; 0.892 µM in [3]; 8.75 µM in [4]. Moreover, the GI50 in assay [5] and in assay [7] was 1.06 µM in each case. In addition, the TGI in [8] is 8.94 µM; in assay [1], 17.9 µM; in assay [10], 23.1 µM; in [2], 19.5 µM; in assay [3], 1.75 µM; in assay [4], 16.7 µM. Besides, the results for the TGI in [5] and in [7] were 2.25 µM and 2.57 µM, respectively.
For the compound `Clc1ccc2c(c1)[nH]c1c2nc2ccccn21`, the TGI in [8] was 63.3 µM and 13.8 µM; in assay [1], > 100 µM and 17.8 µM; in [2] it was > 100 µM and 63.7 µM; in assay [9] it was > 100 µM and 47.6 µM; in [5], 62.4 µM and 31.3 µM; in assay [7], over 100 µM. The GI50 in assay [9] was 42.3 µM and 20.1 µM.
Take `c1ccc(-c2nnc(-c3ccccn3)s2)nc1`: the GI50 in assay [8] is over 100 µM; in assay [1] it was over 100 µM; in assay [10], 5.32 µM; in [2], over 100 µM; in [3] it was over 100 µM; in [4] it was over 100 µM. Also, the GI50 in assay [5] and in [7] was over 100 µM in each case. The TGI in assay [8], in assay [1], in [10], in assay [2], in assay [3] and in [4] was over 100 µM in each case. In addition, the TGI in assay [5] and in assay [7] was over 100 µM each time.
`COc1ccc(Sc2[nH]c(C(C)=O)c3ccccc23)cc1`: the GI50 in assay [8] was 11.9 µM; in assay [1] it was 13 µM; in assay [10], 8.41 µM; in [2] it was 1.79 µM; in [3], 10.3 µM; in assay [4] it was 12.2 µM. Further, the figures for the GI50 in assay [5] and in assay [7] were 13.5 µM and 1.35 µM, respectively. Also, the TGI in assay [8] was 24.4 µM; in [1], 31.2 µM; in assay [10], 36 µM; in assay [2] it was 10.5 µM; in [3], 22 µM; in assay [4], 24.6 µM. The TGI was determined as 26.3 µM in assay [5] and 15.2 µM in assay [7].
As to `COc1ccc(C2SC(N)=Nc3c2c(C)nn3C(=O)c2ccncc2)cc1OC` (stereo unspecified), the TGI in assay [8], in assay [1], in assay [10], in [2], in assay [3] and in [4] was over 10 µM each time. The TGI in assay [5] and in [7] was over 10 µM in each case.
In the case of `CN1CC(=O)N2Cc3ccccc3-n3cccc3C2C1` (stereo unspecified), the TGI in assay [8], in assay [1], in assay [2], in assay [3], in [9] and in assay [4] was over 100 µM each time. Also, the TGI in [5] and in assay [6] was over 100 µM each time.
With `CC(=O)Nc1ccc(S(=O)(=O)N2C(=O)CCC2C(=O)Nc2ccc(Br)cc2)cc1` (stereo unspecified), the GI50 was 3.67 µM in [8]; 4.05 µM in [1]; 0.532 µM in [10]; 3.58 µM in [2]; 0.648 µM in [3]; 2.03 µM in assay [4]. Moreover, the values for the GI50 in assay [5] and in [7] were 3.49 µM and 1.41 µM, respectively. For the same compound, the TGI in [8] is 22.1 µM; in assay [1], 17.8 µM; in [10], 5.93 µM; in assay [2], 16.1 µM; in assay [3], 4.54 µM; in assay [4], 7.47 µM. In addition, the TGI in [5] came out at 20.9 µM; in [7], 5.38 µM.
As to `COc1ccc(OC)c2c1[nH]c(=O)c1c3ccccc3cn21`, the GI50 is 1.34 µM in [8]; 2 µM in [1]; 1.3 µM in [10]; 1.47 µM in assay [2]; 1.55 µM in assay [3]; 1.64 µM in assay [4]. For the same compound, the GI50 in [5] was 1.92 µM; in [7], 0.189 µM. Further, the TGI in assay [8] turned out to be 2.68 µM; in assay [1], 4.01 µM; in [10], 4.07 µM; in assay [2], 2.97 µM; in assay [3], 2.92 µM; in [4] it was 3.31 µM. Further, the TGI came out at 3.38 µM in assay [5] and 2.36 µM in assay [7].
`Cc1cn2c(=O)c3ncn(C4OC(CO)C(O)C4O)c3n(C)c2n1` (stereo unspecified): the TGI in assay [8], in assay [1], in [2], in assay [3], in assay [9] and in assay [4] was over 100 µM each time. In addition, the total growth inhibition concentration (TGI) in assay [5] and in assay [6] was over 100 µM in each case.
Turning to `Cc1cc(Cl)cc(OCCn2cc(F)cn2)c1-c1nc(N)nc2c1CN(C(=O)NCC(C)(F)F)C2`, the GI50 in assay [8] is 0.315 µM; in [1] it was 0.508 µM; in assay [10] it was 0.235 µM; in assay [2], 0.0492 µM; in [3], 0.0779 µM; in [4] it was 0.54 µM. The values for the GI50 in assay [5] and in [7] were 0.0709 µM and 0.0495 µM, respectively. For the same compound, the TGI in assay [8], in [1], in assay [10], in assay [2], in assay [3] and in assay [4] was over 100 µM in each case. For the same compound, the TGI in assay [5] and in assay [7] was over 100 µM in each case.
